Blank lines part the entries; values can stand above or below the compound they belong to.
Legend:
[1] = tested on: primary dopaminergic neurons; assay: Protection of primary dopaminergic neurons from 6-OHDA (THir neurons); type: cell-based, rat; details: 6.25 uM 6-OHDA 40 minute
Description: Dissociated embryonic D14 rat ventral mesencephalic cells were used.
Dopaminergic neurons play a key role in the pathogenesis of Parkinson's disease and compounds enhancing survival of these cells have significant therapeutic potential. Dissociated embryonic D14 rat ventral mesencephalic cells were used to test the potential of EPO mimetic compounds to protect primary dopaminergic neurons. […] The cells were plated in 48-well poly-D-lysine coated plates using a microisland technique. The microislands were seeded into dry plates in 10 uL aliquots of 3000 cells/uL and incubated at 37° C. for 1 h to allow for adhesion. […] On day 3, the medium was replaced with 6.25 uM 6-hydroxydopamine (6-OHDA, Sigma) for a 40 minute incubation. The toxin was then removed and the cells were cultured for an additional 2 days. On day 5, the cells were fixed, permeabilized and stained for tyrosine hydroxylase-immunoreactive (THir) neurons.

[2] = tested on: PC12 cells; assay: PC12 cell survival under serum deprivation (CellTiter-Glo); type: cell-based, rat; details: 72 hours; for minimal effective concentration: Rattus norvegicus, PC-12, NS = RLU increased <25% at 5 uM, read-out: PC12 cell proliferation (CellTiter-Glo ®) Concentration at which RLU increased >25% compared to medium control
Description: Each culture condition was performed in quadruplicate in each experiment and the mean values were calculated. The results represent mean±SEM of relative light unit values when compared to the mean values obtained in the presence of the medium alone. A total of 13 experiments were performed and the statistical significance was analyzed using GraphPad Prism software using ANOVA, followed by paired t-test. The symbol * indicates P-values<0.01.
PC12 cells were cultured in DMEM supplemented with 10% fetal calf serum and 5% horse serum. […] Cell viability was analyzed by CellTiter-Glo® reagent (Promega).
PC12 cells were cultured in DMEM supplemented with 10% fetal calf serum and 5% horse serum. […] Cell survival of the serum-starved cells was analyzed by CellTiter-Glo® reagent luminescence reading.
FIG. 2 illustrates neuroprotective effects of Compounds 1-5 when tested in PC12 cell protection assays. PC12 cells were subjected to serum deprivation as described under FIG. 1.
PC12 cells were cultured in DMEM supplemented with 10% fetal calf serum and 5% horse serum. […] Cell survival of the serum-starved cells was analyzed by CellTiter-Glo® reagent luminescence reading (relative light units, “RLU”). […] “NS” indicates RLU increased <25% when compounds were tested at 5 uM.

[3] = tested on: human CD34+ hematopoietic stem cells; assay: Erythroid differentiation of human CD34+ cells (CD235a, flow cytometry); type: cell-based; details: eleven days in culture
Description: (§1) Compound 10 was tested at different concentrations for its ability to induce proliferation and differentiation of human CD34+ hematopoietic stem cells. Human CD34+ cells were purified by (FIG. 6A) immunomagnetic beads (>90% purity, purchased from Stem Cell Technologies) or (FIG. 6B) cell sorting (at Blood Systems Research Institute) and the cells were cultured in the presence of compounds for eight (FIG. 6A) or eleven (FIG. 6B) days. (FIG. 6A) The level of cell growth and survival was measured based on ATP levels (CellTiterGlo reagent), or (FIG. 6B) the expression level of CD235a was analyzed by flow cytometry as a marker for cell maturation. Cell survival was analyzed using the CellTiterGlo reagent to measure ATP levels as a marker of metabolically active cells that have not undergone apoptosis, and expression of CD235a as a marker of erythroid cell differentiation and as a specific marker for EPO-like erythropoietic activity.

[4] = tested on: human CD34+ hematopoietic stem cells; assay: Proliferation of human CD34+ cells (ATP, CellTiterGlo); type: cell-based; details: eight days in culture
Description: as §1

[5] = tested on: rats; assay: Kidney and CNS protection in rats with DMA + Cremophor EL toxicity; type: in vivo, rat; details: DMA + CrEL 2.5 mL/kg each, IP
Description: High-dose N,N-dimethylacetamide (DMA)+ Cremophor EL (CrEL) (2.5 mL/kg each, IP) was used to induce acute CNS and organ toxicity, and the potential of Compound 5 to protect the rats was studied.

[6] = target: T1, EPO receptor (Homo sapiens, UniProt P19235); assay: EPO receptor phosphorylation in TF-1 cells (phospho-EPOR ELISA); type: cell-based; parameters: endogenous in cells; host or cells: TF-1 human erythroleukemia cell line; details: TF-1, 10 min
T1 sequence (P19235 25-508): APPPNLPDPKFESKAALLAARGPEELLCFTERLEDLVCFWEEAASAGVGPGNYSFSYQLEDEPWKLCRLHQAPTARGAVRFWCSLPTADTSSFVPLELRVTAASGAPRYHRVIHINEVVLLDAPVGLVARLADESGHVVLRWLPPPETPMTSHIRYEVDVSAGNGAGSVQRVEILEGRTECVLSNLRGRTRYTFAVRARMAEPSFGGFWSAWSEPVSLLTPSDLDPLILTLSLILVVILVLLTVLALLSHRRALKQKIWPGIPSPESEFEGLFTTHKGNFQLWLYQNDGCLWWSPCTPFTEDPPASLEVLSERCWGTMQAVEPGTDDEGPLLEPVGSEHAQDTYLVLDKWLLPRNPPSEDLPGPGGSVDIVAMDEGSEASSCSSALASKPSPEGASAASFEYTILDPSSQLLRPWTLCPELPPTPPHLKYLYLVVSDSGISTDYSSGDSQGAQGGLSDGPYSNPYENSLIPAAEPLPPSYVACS
Description: (§2) Primary micro-dissected fetal brain tissue was obtained from a commercial source (Advanced Bioscience Resources, Inc., Alameda, Calif.). Cultured primary human fetal neural cells (3 h, 1 day, 17 days, or 26 days in culture) were incubated with Compound 5, Compound 6, or controls for 10 min (FIG. 5A). Phospho-EPOR was detected by ELISA (R&D Systems). […] Human erythropoietic cell line TF-1 was cultured for 10 min in the presence of Compound 5, Compound 6, or the controls, and phospho-EPOR was detected by ELISA (R&D Systems). The data represent mean+SEM of triplicate cultures.

[7] = tested on: frataxin; assay: Frataxin protein levels in primary human fetal neurons (ELISA); type: cell-based; details: 28 days in culture, 24 h, relative to total protein
Description: The effects of the compounds on frataxin protein levels in cells were analyzed. […] Embryonic mouse cell line P19 was differentiated into neuronal cells in the presence of retinoic acid and frataxin levels were measured (FIG. 4A). Frataxin levels were measured after 24 h by multi-species frataxin-ELISA (MitoSciences) and compared to total protein levels. The data represent mean+SEM. Primary human fetal neurons (28 days in culture) were also incubated for 24 h in the presence of the compounds, and human frataxin levels were measured by ELISA (MitoSciences) and compared to total protein levels (FIG. 4B). The data represent mean+SEM of triplicate measurements. Compounds were also tested for their effects on frataxin levels in cells derived from patients with FRDA. Cultures of patient peripheral blood mononuclear cells (PBMCs) were also used to test the EPO mimetic compounds for frataxin enhancement in frataxin-deficient cells. Compound 1 and Compounds 5-6 enhanced frataxin levels in these patient cells at concentration 1 uM or lower.

[8] = tested on: TF-1 cells; assay: TF-1 cell proliferation; type: cell-based, human; details: at concentrations that provided significant neuroprotective effects
[9] = target: T1, EPO receptor; assay: EPO receptor phosphorylation in primary human fetal neural cells (phospho-EPOR ELISA); type: cell-based; parameters: endogenous in cells; host or cells: primary human fetal neural cells from micro-dissected fetal brain tissue (Advanced Bioscience Resources, Inc.); details: 10 min incubation; for level of EPO receptor activation compared with recombinant human EPO: EPO 10 IU/ml
Description: as §2, with “cultures. […] The receptor activation results were consistent with functional cell based assays using primary human CD34+ bone marrow progenitor cells and erythroleukemia cell line TF-1.” for “cultures.”

[10] = tested on: frataxin; details: 8 FRDA patients, open label pilot trial; cited from earlier work
[11] = tested on: frataxin; details: patients with chronic kidney disease, rhEPO infusion for anemia; cited from earlier work
[12] = following intravenous administration; cited from earlier work

Compound: Cc1cc(C)n2nc(SCCOc3ccc(Cl)cc3)nc2n1 [Example 1, 2-{[2-(4-chlorophenoxy)ethyl]sulfanyl}-5,7-dimethyl-[1,2,4]triazolo[1,5-a]pyrimidine]
protection of dopaminergic neurons from 6-OHDA toxicity ([1]; 1 uM): significantly protected
effect on PC12 cell viability compared with rhEPO ([2]; compound at 1 uM, serum-free): at least a comparable effect on cell viability as rhEPO
level of PC12 cell protection compared with rhEPO at 10 U/ml ([2]; compound at 5 uM, serum-free): even higher level of protection than rhEPO
concentration at which significant protective effect on PC12 cells was observed ([2]; serum-free conditions): 1 µM

Compound: Cc1cc(C)n2nc(SCCOc3ccc(F)c(Cl)c3)nc2n1 [Example 6, 2-{[2-(3-chloro-4-fluorophenoxy)ethyl]sulfanyl}-5,7-dimethyl-[1,2,4]triazolo[1,5-a]pyrimidine]
minimal effective concentration ([2]; serum-free conditions): < 5 µM

Compound: COc1ccc(NC(=O)CSc2nc3nc(C)cc(C)n3n2)cc1 [Example 10, 2-({5,7-dimethyl-[1,2,4]triazolo[1,5-a]pyrimidin-2-yl}sulfanyl)-N-(4-methoxyphenyl)acetamide]
erythroid differentiation (CD235a expression) [3]: differentiation into erythroid cells expressing CD235a
CD34+ progenitor cell proliferation (ATP levels) [4]: dose-dependent induction of CD34+ progenitor cell proliferation

EPO receptor activation (phospho-EPOR) [6]: did not activate EPO receptor
Compound: Cc1cc(C)n2nc(OCCOc3ccc(Cl)cc3)nc2n1 [Example 11, 2-[2-(4-chlorophenoxy)ethoxy]-5,7-dimethyl-[1,2,4]triazolo[1,5-a]pyrimidine]
kidney-protective effect (hypoproteinemia in serum) [5]: reduced hypoproteinemia in serum
response to formalin injection [5]: normalized the response of the rats to formalin injection
frataxin protein levels [7]: increased frataxin protein levels
proliferation of TF-1 cells [8]: did not induce proliferation of TF-1 cells
EPO receptor phosphorylation [9]: increased EPO receptor phosphorylation in a dose-dependent manner
level of EPO receptor activation compared with recombinant human EPO [9]: comparable to that induced by recombinant human EPO

EPO receptor activation (phospho-EPOR) [6]: did not activate EPO receptor
Compound: Cc1cc(C)n2nc(OCCN(CCO)c3ccccc3)nc2n1 [Example 13, 2-{[2-({5,7-Dimethyl-[1,2,4]triazolo[1,5-a]pyrimidin-2-yl}oxy)ethyl](phenyl)amino}ethan-1-ol]
frataxin protein levels [7]: increased frataxin protein levels
proliferation of TF-1 cells [8]: did not induce proliferation of TF-1 cells
EPO receptor phosphorylation [9]: increased EPO receptor phosphorylation in a dose-dependent manner
level of EPO receptor activation compared with recombinant human EPO [9]: comparable to that induced by recombinant human EPO

Compound: CCc1cc(CC)n2nc(CCCOc3ccc(Cl)cc3)nc2n1 [Example 28, 2-[3-(4-chlorophenoxy)propyl]-5,7-diethyl-[1,2,4]triazolo[1,5-a]pyrimidine]
minimal effective concentration ([2]; serum-free conditions): < 5 µM

Compound: rhEPO: recombinant human (rh)EPO, erythropoietin; positive control
protection of dopaminergic neurons from 6-OHDA toxicity ([1]; 10 IU/ml): significantly protected
overall increase in frataxin in lymphocytes [10]: 24%
increase in frataxin levels in peripheral blood mononuclear cells [11]: 2-3 fold
concentration in human cerebrospinal fluid lower than in circulation [12]: more than 1000 fold

From US9657024B2, “Substituted triazolo-pyrimidine compounds for modulating cell proliferation, differentiation and survival” (STATegics, Inc., priority 2012, dated 2017)
